Test results taken from the supplement of paper PMC8671470.

What was measured:
Conditions in all cases: 72 h
HL-60 [1] = assay: cell viability (% survival relative to DMSO control, bortezomib = 0%); higher = less cytotoxic
In short: (§1)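 In 384-well plates pre-printed with compounds at 1, 10, 100, 1000 or 10000 nM, duplicate wells received cells from 10 AML and 5 CML lines at densities within the linear growth range. The plates stayed at 37 °C with 5% CO2 for 72 h before CellTiter-Glo luminescence was recorded. Each entry is averaged percent survival. Scaling placed vehicle at 100% and a 10 µM positive control at 0%.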

HEL = assay: as above
In short: as §1

KU-812 = assay: as above
In short: as §1

KCL-22 = assay: as above
In short: as §1

MOLM-13 = assay: as above
In short: as §1

HL-60 [2] = assay: cell viability (% survival relative to DMSO control); higher = less cytotoxic
In short: (§2)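 In 384-well plates, the full library was rescreened in duplicate on HL-60 cells in RPMI 1640 with 10% FBS, at 1–10,000 nM in five tenfold concentrations, for 72 h at 37 °C, 5% CO2. Each run also held DMSO or 100 nM of one of three metabolic inhibitors. Viability was measured by CellTiter-Glo and normalised to DMSO wells and to wells with proteasome inhibitor, present at 10 μM. Any area under the curve comes from four-parameter log-logistic fitting with drc and PharmacoGx.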

MV4-11 = test system: MV4-11
In short: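 Dose–response data were fitted with a four-parameter log-logistic model. They came from fifteen myeloid leukaemia lines treated in duplicate with five tenfold doses from 1 to 10,000 nM for 72 h at 37 °C with 5% CO2, with ATP viability normalised to vehicle and to a positive control at 10 µM. The IC50 was derived from these fits.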

HL-60 [3] = assay: area under dose-response curve (viability, 1 nM-10 uM) (fraction (0-1)); higher = more sensitive
In short: as §2

NS(=O)(=O)c1ccc([N+](=O)[O-])cc1 [4-Nitrobenzenesulfonamide]
Conditions	area under dose-response curve, co-treatment: AZD3965 100 nM	area under dose-response curve, co-treatment: DMSO vehicle	area under dose-response curve, co-treatment: GSK2194069 100 nM	area under dose-response curve, co-treatment: pictilisib 100 nM	cell viability, 1 nM [%]	cell viability, 10 nM [%]	cell viability, 100 nM [%]	cell viability, 1000 nM [%]	cell viability, 10000 nM [%]
HEL	–	–	–	–	105	98.7	105	99.6	96.3
HL-60 [1]	–	–	–	–	106	111	110	99.8	108
HL-60 [3]	< 0.0301	< 0.0301	< 0.0301	< 0.0301	–	–	–	–	–
KCL-22	–	–	–	–	103	101	103	93.1	91.1
KU-812	–	–	–	–	102	95.7	105	98.1	93
MOLM-13	–	–	–	–	91.3	92.3	95.4	110	107

cell viability [%], HL-60 [2]
Conditions	0.001 µM	0.01 µM	0.1 µM	1 µM	10 µM
co-treatment: AZD3965 100 nM	91.2	100.8	103	97.7	90.6
co-treatment: DMSO vehicle	92.3	96.5	104	104	100
co-treatment: GSK2194069 100 nM	96.7	96.8	100.73	102	98.17
co-treatment: pictilisib 100 nM	105	98.6	101	99.4	91.7

Conditions	IC50 (cell viability) [µM]
MV4-11	> 10
